Experimental data reported in PubChem BioAssay AID1963979 (Molecular Pharmacology Branch, DTP, NCI, 2024).

System: 361931-004-R-J1-PDC multicell spheroid viability
Assay: Anticancer human tumor 361931-004-R-J1-PDC patient-derived colon adenocarcinoma cell line growth inhibition [PI3K]
Conditions: for viability, T/C: stronger effect = lower value
From the text: Combinatorial screen of targeted agents with the PI3K inhibitors inavolisib, alpelisib, duvelisib, and copanlisib in multi-cell type tumor spheroids
A high-throughput screen of multi-cell type tumor spheroids was designed to identify active combinations of targeted small molecules and PI3K pathway inhibitors. Complex spheroids include a stromal component modeled by human endothelial cells (HUVEC) and fibroblasts modeled by human mesenchymal stem cells (MSCs). The concentration ranges selected for each drug and investigational agent were based upon clinically achievable concentrations if the clinical Cmax of the agent was known.
Compounds. The drugs and investigational agents: inavolisib (NSC800729), alpelisib (NSC765974), duvelisib (NSC772469), copanlisib (NSC816437), ipatasertib (NSC767898), afuresertib (NSC778305), talazoparib (NSC767125), sapanisertib (NSC764658), selumetinib (NSC741078), tovorafenib (DAY101, NSC766906), vemurafenib (NSC761431), ravoxertinib (NSC781343), sotorasib (NSC818433), MRTX1133 (NSC 836407), abemaciclib (NSC 768073), palbociclib (NSC758247), venetoclax (NSC 766270), SY5609 (NSC837396), enzalutamide (NSC755605), and darolutamide (NSC825331), were obtained from the National Cancer Institute (NCI) Developmental Therapeutics Program Chemical Repository. The FDA-approved anticancer drug set is available from the NCI Developmental Therapeutics Program. […] The stock solutions were prepared in dimethyl sulfoxide (DMSO, Sigma-Aldrich, St. Louis, MO, cat. D2650) at 800-fold the tested concentration and stored at -70 degrees C prior to their use. All drugs and investigational agents were tested over a range starting from a high concentration at or near the clinical Cmax and decreasing in half-log increments. If the clinical Cmax for an agent had not been determined, the highest concentration tested was 10 microM.
Cell Culture. All cells were maintained in an incubator at 37 degrees C and 5% CO2 with 95% humidity. The PDC lines were cultured according to standard operating procedures established by the NCI PDMR (https://pdmr.cancer.gov/sops/default.htm). All PDCs were thawed and cultured in Matrigel-coated flasks prepared with a working solution of 1X Ham's F-12 nutrient mix, without supplementation (Invitrogen, Waltham, MA, cat. 11765054), 100 U/mL penicillin-streptomycin (Invitrogen, cat. 15140122), and 2.5% Matrigel (Corning Inc., Corning, NY, cat. 354248) for the first three passages. The 354836-022-R-J1-PDC, 475296-252-R-J1-PDC, and 997726-040-R-J2-PDC lines were cultured in 6A media, which includes advanced DMEM/F-12 (Thermo Fisher Scientific, cat. 12634028), 10 mM HEPES (Thermo Fisher Scientific, cat. 15630080), 1X GlutaMAX supplement (Thermo Fisher Scientific, cat. 35050061), 0.1 mg/mL primocin (InvivoGen, San Diego, CA, cat. ant-pm-2), 10% defined fetal bovine serum, heat inactivated (HyClone Laboratories Inc., Logan, UT, cat. SH30070.03HI), 50% L-WRN conditioned media (ATCC, cat. CRL-3276), 1.25 mM N-Acetyl-L-cysteine (Sigma-Aldrich, cat. A9165), 10 mM nicotinamide (Sigma-Aldrich, cat. N0636), 1X B-27 supplement (Thermo Fisher Scientific, cat. 17504044), 1X N-2 supplement (Thermo Fisher Scientific, cat. 17502048), and 10 microM Y-27632 dihydrochloride (Tocris Bioscience, Bristol, United Kingdom, cat. 1254). The 624824-186-R-J2-PDC line was cultured in 6C/Colon 1B media, which includes all 6A media components plus 50 ng/mL human EGF recombinant protein (Thermo Fisher Scientific, cat. PHG0311). […]

[1] = curve of first compound, second compound 0.00316 µM
[2] = curve of first compound, second compound 0.01 µM
[3] = curve of first compound, second compound 0.0316 µM
[4] = curve of first compound, second compound 0.1 µM
[5] = curve of first compound, second compound 0.316 µM
[6] = curve of first compound, second compound 1 µM
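Also: spheroids exposed to agents for seven days before readout.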

Question: How did the viability, T/C (compound 0.1 µM) turn out when `CC1(C)CCC(Nc2ncc(C(F)(F)F)c(-c3c[nH]c4c(P(C)(C)=O)c(C#N)ccc34)n2)CN1` (configuration not stated) was run?
Answer: 94.6% [middle of 4 runs]

Question: And the viability, T/C (compound 10 µM)?
Answer: 12.9% [middle of 4 runs]

Question: And the IC50 (curve of compound)?
Answer: 5.63 µM [middle of 4 runs]

Question: Which IC50 [1] does the source give for `CNC(=O)c1ccc(N2C(=S)N(c3ccc(C#N)c(C(F)(F)F)c3)C(=O)C2(C)C)cc1F` + CC(Nc1ccc2c(c1)OCCn1cc(N3C(=O)OCC3C(F)F)nc1-2)C(N)=O here?
Answer: > 10 µM

Question: And the IC50 [2]?
Answer: > 10 µM

Question: And the IC50 [3]?
Answer: > 10 µM

Question: And the IC50 [4]?
Answer: > 10 µM

Question: And the IC50 [5]?
Answer: > 10 µM

Question: And the IC50 [6]?
Answer: > 10 µM

Question: What about the viability, T/C (second compound 0.00316 µM, first compound 0.0316 µM) of the same molecule?
Answer: 110%

Question: What about the viability, T/C (second compound 0.00316 µM, first compound 0.1 µM) of the same molecule?
Answer: 101%

Question: And the viability, T/C (second compound 0.00316 µM, first compound 0.316 µM)?
Answer: 101%

Question: And the viability, T/C (second compound 0.00316 µM, first compound 1 µM)?
Answer: 92.8%

Question: And the viability, T/C (second compound 0.00316 µM, first compound 3.16 µM)?
Answer: 110%

Question: And the viability, T/C (second compound 0.00316 µM, first compound 10 µM)?
Answer: 93.7%

Question: And the viability, T/C (second compound 0.01 µM, first compound 0.0316 µM)?
Answer: 109%

Question: What about the viability, T/C (second compound 0.01 µM, first compound 0.1 µM) of the same molecule?
Answer: 102%

Question: What about the viability, T/C (second compound 0.01 µM, first compound 0.316 µM) of the same molecule?
Answer: 85.2%

Question: And the viability, T/C (second compound 0.01 µM, first compound 1 µM)?
Answer: 104%

Question: And the viability, T/C (second compound 0.01 µM, first compound 3.16 µM)?
Answer: 103%

Question: What about the viability, T/C (second compound 0.01 µM, first compound 10 µM) of the same molecule?
Answer: 90.4%

Question: And the viability, T/C (second compound 0.0316 µM, first compound 0.0316 µM)?
Answer: 107%

Question: And the viability, T/C (second compound 0.0316 µM, first compound 0.1 µM)?
Answer: 103%

Question: What about the viability, T/C (second compound 0.0316 µM, first compound 0.316 µM) of the same molecule?
Answer: 105%

Question: What about the viability, T/C (second compound 0.0316 µM, first compound 1 µM) of the same molecule?
Answer: 102%

Question: What about the viability, T/C (second compound 0.0316 µM, first compound 3.16 µM) of the same molecule?
Answer: 105%

Question: What about the viability, T/C (second compound 0.0316 µM, first compound 10 µM) of the same molecule?
Answer: 82.4%

Question: And the viability, T/C (second compound 0.1 µM, first compound 0.0316 µM)?
Answer: 94.6%

Question: What about the viability, T/C (second compound 0.1 µM, first compound 0.1 µM) of the same molecule?
Answer: 99.1%

Question: And the viability, T/C (second compound 0.1 µM, first compound 0.316 µM)?
Answer: 93.1%

Question: And the viability, T/C (second compound 0.1 µM, first compound 1 µM)?
Answer: 100%

Question: What about the viability, T/C (second compound 0.1 µM, first compound 3.16 µM) of the same molecule?
Answer: 97.4%

Question: What about the viability, T/C (second compound 0.1 µM, first compound 10 µM) of the same molecule?
Answer: 86.4%

Question: What about the viability, T/C (second compound 0.316 µM, first compound 0.0316 µM) of the same molecule?
Answer: 88.1%

Question: What about the viability, T/C (second compound 0.316 µM, first compound 0.1 µM) of the same molecule?
Answer: 94%

Question: And the viability, T/C (second compound 0.316 µM, first compound 0.316 µM)?
Answer: 88.6%

Question: And the viability, T/C (second compound 0.316 µM, first compound 1 µM)?
Answer: 87.9%

Question: And the viability, T/C (second compound 0.316 µM, first compound 3.16 µM)?
Answer: 87.5%

Question: What about the viability, T/C (second compound 0.316 µM, first compound 10 µM) of the same molecule?
Answer: 76%

Question: What about the viability, T/C (second compound 1 µM, first compound 0.0316 µM) of the same molecule?
Answer: 75.9%

Question: And the viability, T/C (second compound 1 µM, first compound 0.1 µM)?
Answer: 82.1%

Question: What about the viability, T/C (second compound 1 µM, first compound 0.316 µM) of the same molecule?
Answer: 79.3%

Question: And the viability, T/C (second compound 1 µM, first compound 1 µM)?
Answer: 78%

Question: And the viability, T/C (second compound 1 µM, first compound 3.16 µM)?
Answer: 76.1%

Question: And the viability, T/C (second compound 1 µM, first compound 10 µM)?
Answer: 79.6%

Question: What does the source list for `Cn1cnc2c(F)c(Nc3ccc(Br)cc3Cl)c(C(=O)NOCCO)cc21` + CC(Nc1ccc2c(c1)OCCn1cc(N3C(=O)OCC3C(F)F)nc1-2)C(N)=O?
Answer: IC50 [1]: 2.59 µM; IC50 [2]: > 3 µM; IC50 [3]: 2.11 µM; IC50 [4]: 1.14 µM; IC50 [5]: 0.556 µM; IC50 [6]: 0.158 µM; viability, T/C (second compound 0.00316 µM, first compound 0.00949 µM): 91.9%; viability, T/C (second compound 0.00316 µM, first compound 0.03 µM): 94.6%; viability, T/C (second compound 0.00316 µM, first compound 0.0949 µM): 80.4%; viability, T/C (second compound 0.00316 µM, first compound 0.3 µM): 80.1%; viability, T/C (second compound 0.00316 µM, first compound 0.949 µM): 75%; viability, T/C (second compound 0.00316 µM, first compound 3 µM): 45.5%; viability, T/C (second compound 0.01 µM, first compound 0.00949 µM): 99.4%; viability, T/C (second compound 0.01 µM, first compound 0.03 µM): 92.8%; viability, T/C (second compound 0.01 µM, first compound 0.0949 µM): 81.1%; viability, T/C (second compound 0.01 µM, first compound 0.3 µM): 72.4%; viability, T/C (second compound 0.01 µM, first compound 0.949 µM): 63.8%; viability, T/C (second compound 0.01 µM, first compound 3 µM): 51.9%; viability, T/C (second compound 0.0316 µM, first compound 0.00949 µM): 96.2%; viability, T/C (second compound 0.0316 µM, first compound 0.03 µM): 92.9%; viability, T/C (second compound 0.0316 µM, first compound 0.0949 µM): 83.8%; viability, T/C (second compound 0.0316 µM, first compound 0.3 µM): 70.4%; viability, T/C (second compound 0.0316 µM, first compound 0.949 µM): 62%; viability, T/C (second compound 0.0316 µM, first compound 3 µM): 45%; viability, T/C (second compound 0.1 µM, first compound 0.00949 µM): 90.8%; viability, T/C (second compound 0.1 µM, first compound 0.03 µM): 83.3%; viability, T/C (second compound 0.1 µM, first compound 0.0949 µM): 76.1%; viability, T/C (second compound 0.1 µM, first compound 0.3 µM): 73.2%; viability, T/C (second compound 0.1 µM, first compound 0.949 µM): 53.8%; viability, T/C (second compound 0.1 µM, first compound 3 µM): 28.5%; viability, T/C (second compound 0.316 µM, first compound 0.00949 µM): 86%; viability, T/C (second compound 0.316 µM, first compound 0.03 µM): 82.8%; viability, T/C (second compound 0.316 µM, first compound 0.0949 µM): 63.9%; viability, T/C (second compound 0.316 µM, first compound 0.3 µM): 62.4%; viability, T/C (second compound 0.316 µM, first compound 0.949 µM): 43.8%; viability, T/C (second compound 0.316 µM, first compound 3 µM): 14.7%; viability, T/C (second compound 1 µM, first compound 0.00949 µM): 72.8%; viability, T/C (second compound 1 µM, first compound 0.03 µM): 57.3%; viability, T/C (second compound 1 µM, first compound 0.0949 µM): 57.1%; viability, T/C (second compound 1 µM, first compound 0.3 µM): 46.4%; viability, T/C (second compound 1 µM, first compound 0.949 µM): 26.2%; viability, T/C (second compound 1 µM, first compound 3 µM): 8.6%
